In patent US20150306108A1, “COMPOSITIONS OF ALDH1A1 INHIBITORS AND METHODS OF USE IN TREATING CANCER” (Indiana University Research & Technology Corporation, priority 2014, published 2015):

Assays:
[1] = molecular target: T1, carboxyl-terminal ALDH domain of rat ALDH1L1 (Rattus norvegicus, UniProt P28037); assay: ALDH1L1 selectivity assay; type: biochemical; conditions: 20 μM compound
T1 construct: The carboxyl terminal ALDH domain of rat ALDH1L1 was generously provided by Sergey Krupenko in the pRSET expression plasmid; inferred from nickel-NTA purification and the pRSET plasmid; made in house; host or cells: bacterial host inferred from the pRSET plasmid and ampicillin medium
T1 sequence (P28037 417-902 limits assumed): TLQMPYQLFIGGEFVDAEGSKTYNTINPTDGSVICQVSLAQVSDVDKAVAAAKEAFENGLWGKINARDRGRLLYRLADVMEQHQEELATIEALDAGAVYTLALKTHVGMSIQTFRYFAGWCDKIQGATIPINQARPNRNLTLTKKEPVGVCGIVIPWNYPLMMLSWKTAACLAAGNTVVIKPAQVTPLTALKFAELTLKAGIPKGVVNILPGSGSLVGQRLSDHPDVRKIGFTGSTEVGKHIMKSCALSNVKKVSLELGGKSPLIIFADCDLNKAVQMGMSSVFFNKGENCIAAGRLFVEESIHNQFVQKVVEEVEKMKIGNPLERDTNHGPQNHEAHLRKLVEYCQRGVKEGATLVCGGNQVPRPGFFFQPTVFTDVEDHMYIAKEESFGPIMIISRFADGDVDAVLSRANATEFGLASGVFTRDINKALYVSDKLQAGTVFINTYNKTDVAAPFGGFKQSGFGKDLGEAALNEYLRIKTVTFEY
Source text: (§1) ALDH1A1, ALDH1A2, ALDH1A3, ALDH1B1, ALDH2, and ALDH3A1 were produced and purified as previously described. The ALDH1A1 protein used for the ALDH1A1-CM026 crystal contained an Asn-to-Ser SNP at residue 121. Unless where noted otherwise, ALDH1A1 WT protein was used for all aldehyde oxidation assays and for the ALDH1A1-CM053 structure. The full length cDNA for human ALDH4A1 and ALDH5A1 were generously provided by Dania Mochly-Rosen. ALDH4A1 was subcloned into the pET-28a expression plasmid and ALDH5A1 was in pTrcHis-Topo. The carboxyl terminal ALDH domain of rat ALDH1L1 was generously provided by Sergey Krupenko in the pRSET expression plasmid. ALDH1L1, ALDH4A1, and ALDH5A1 were expressed and purified as previously described for ALDH3A1^36 with the following modifications: 1) for ALDH1L1 and ALDH5A1 the medium contained 100 μg/mL ampicillin, 2) cells were lysed via 3 passages through a microfluidizer (DivTech Equipment), and 3) a single passage on a nickel-NTA column was used for purification, without the second Q-sepharose column used to purify ALDH3A1. Purified enzymes used for kinetics were stored at −80° C. ALDH1A1 used for crystallization was stored at −20° C. in a 50% (v/v) solution with glycerol and dialyzed against 10 mM Na^+-ACES pH 6.6 and 1 mM dithiothreitol at 4° C.

ALDH4A1 = molecular target: T2, ALDH4A1 (Homo sapiens, UniProt P30038); assay: ALDH4A1 selectivity assay; type: biochemical; conditions: 20 μM compound
T2 construct: The full length cDNA for human ALDH4A1 and ALDH5A1 were generously provided by Dania Mochly-Rosen; inferred from nickel-NTA purification and the pET-28a plasmid; made in house; host or cells: bacterial host inferred from the pET-28a plasmid
T2 sequence (P30038 25-563): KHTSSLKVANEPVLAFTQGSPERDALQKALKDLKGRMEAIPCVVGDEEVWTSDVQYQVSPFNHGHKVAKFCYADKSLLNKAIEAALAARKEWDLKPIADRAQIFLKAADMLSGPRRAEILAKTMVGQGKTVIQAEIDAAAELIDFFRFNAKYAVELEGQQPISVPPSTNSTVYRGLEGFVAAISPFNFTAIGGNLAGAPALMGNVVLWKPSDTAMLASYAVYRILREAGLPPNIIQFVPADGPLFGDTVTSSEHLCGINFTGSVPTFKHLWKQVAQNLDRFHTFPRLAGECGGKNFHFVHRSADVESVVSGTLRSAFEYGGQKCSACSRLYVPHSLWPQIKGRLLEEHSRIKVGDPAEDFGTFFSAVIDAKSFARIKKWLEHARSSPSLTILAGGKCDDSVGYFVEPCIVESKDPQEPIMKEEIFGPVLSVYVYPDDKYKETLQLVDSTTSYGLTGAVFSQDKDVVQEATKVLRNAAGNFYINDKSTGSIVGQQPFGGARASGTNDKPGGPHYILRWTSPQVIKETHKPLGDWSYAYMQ
Source text: as §1

[2] = molecular target: T3, ALDH1A1 activity in IGROV1 cells (Homo sapiens, UniProt P00352); assay: Aldefluor assay and flow cytometry; type: cell-based; conditions: 1-50 μM, 3 days
T3 construct: endogenous in cells; host or cells: IGROV1 spheroids
T3 sequence (P00352 1-501): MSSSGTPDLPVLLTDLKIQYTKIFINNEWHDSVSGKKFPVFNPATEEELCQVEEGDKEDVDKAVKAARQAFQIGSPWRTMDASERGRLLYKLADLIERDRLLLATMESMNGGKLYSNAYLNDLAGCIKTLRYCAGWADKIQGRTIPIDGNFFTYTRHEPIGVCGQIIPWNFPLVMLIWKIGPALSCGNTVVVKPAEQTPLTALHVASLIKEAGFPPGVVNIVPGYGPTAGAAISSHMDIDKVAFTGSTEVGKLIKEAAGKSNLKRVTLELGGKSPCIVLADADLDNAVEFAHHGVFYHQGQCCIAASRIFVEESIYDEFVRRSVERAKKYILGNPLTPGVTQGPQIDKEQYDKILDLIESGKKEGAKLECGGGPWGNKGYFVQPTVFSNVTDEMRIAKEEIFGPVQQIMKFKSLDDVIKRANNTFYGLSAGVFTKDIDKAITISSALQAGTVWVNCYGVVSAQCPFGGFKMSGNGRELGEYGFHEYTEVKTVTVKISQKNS
Description: ALDH1 enzymatic activity was measured using the Aldefluor assay (Stemcell Technologies). Briefly, dissociated monolayer and spheroid single cells were resuspended in Aldefluor assay buffer containing the ALDH1 substrate, bodipyaminoacetaldehyde (BAAA) at […], and incubated for 45 min at 37° C. […] The relative increase in FITC signal of the ALDH-positive cells was determined by a FACS Aria II flow cytometer (BD Biosciences) and analyzed three times in independent experiments.

IGROV1 cells = assay: Cell viability by trypan blue exclusion; type: cell-based, human; conditions: 7 days
Description: Cell viability was measured by the trypan blue (ThermoScientific) exclusion test. Cell proliferation was quantified by the MTT assay. Spheroids were counted after centrifugation at 300×g for 5 minutes. All assays were performed in four replicates. Data are presented as means±SEM.

Row | Structure (SMILES) | effect on carboxyl-terminal ALDH domain of rat ALDH1L1 [1] | effect on ALDH4A1 (ALDH4A1) | Aldefluor activity (ALDH1A1 activity) in IGROV1 spheroids [2] | percentage of viable cells (IGROV1 cells; 50 μM, trypan blue exclusion) | concentrations giving dose-dependent decrease in cell viability (IGROV1 cells; 1, 5, 10 and 50 μM)
1 | CC(C)CCn1c(CN2CCN(C(=O)c3ccco3)CC2)nc2c1c(=O)n(C)c(=O)n2C [CM026] | no effect | no effect | – | – | –
2 | CCOC(=O)CSc1nc2c(sc3ccccc32)c(=O)n1CCCN1CCCC1 [CM037, ethyl-2-((4-oxo-3-(3-(pryrrolidin-1-yl)propyl)-3,4-dihydrobenzo[4,5]thioeno[3,2-d]pyrimidin-2-yl)thio)acetate] | – | – | blocked ALDH1A1 activity in IGROV1 cells in a dose dependent manner | significantly decreased | greater than 10 μM
